# Data taken from the METLIN SMRT retention time set (Domingo-Almenara et al. 2019).
# Assay: gradient 5% acetonitrile 3 min, to 50% in 2 min, to 85% in 15 min, held 3 min, 100 µL/min
# Conditions: column: Zorbax Extend-C18 2.1 x 50 mm; eluents: water / acetonitrile, 0.1% formic acid
# Method in brief: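 Retention times come from adduct peaks that were picked computationally and then checked by hand. The standards, pure and pooled in mixtures of ~100 molecules, were run on a Zorbax Extend-C18 column (2.1 × 50 mm, 1.8 μm) at 100 μL/min with water and acetonitrile, each with 0.1% formic acid. Detection was by quadrupole time-of-flight mass spectrometry in positive and negative ionization mode, with a dead volume of 40 μL and a dwell volume of 900 μL.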
row,RP-LC retention time [s],SMILES
1,758,CCCNC(=O)N1CCCC1c1nc(-c2ccc(OC)cc2)no1 (stereo not drawn)
2,1130,Cc1cc(C)cc(C(=O)N2c3ccccc3CC2c2nc(C3CC3)no2)c1 (stereo not drawn)
3,606,COc1ccc(OC)c(-c2[nH]ncc2CN2CC(F)(F)C[C@H]2CN2CCOCC2)c1
4,571,CCN(CC)CCNC(=O)Cn1c(-c2ccccn2)nc2ccccc21
5,860,COc1ccc(NC(=O)C2CCN(c3nc4ccc(-c5cncnc5)nc4s3)CC2)cc1
6,823,CC1(C)C(=O)N(CC(=O)Nc2ccc3c(c2)OCO3)c2ccccc21
7,567,CCOC(=O)c1c(C)[nH]c(C(=O)N2CCCC(C(=O)NCCN3CCN(CC)CC3)C2)c1C (stereo not drawn)
8,644,Cc1cc(N2CCN(C(=O)C(C)Oc3cccc(Cl)c3)CC2)nc2nncn12 (stereo not drawn)
9,579,Cc1cccc2c(C(N)=O)cc(N3CCN(C)CC3)nc12
10,743,C=C(C)COc1ccc2c(C)c(CCC(=O)N3CCN(c4ccccn4)CC3)c(=O)oc2c1C
11,978,Cn1c(C(=O)N2CCC(C(=O)NCc3ccccc3Cl)CC2)cc2oc3ccccc3c21
12,725,Cc1ccc(N(C)C(=O)CN(C)S(=O)(=O)c2ccc3c(c2)CCCC(=O)N3)cc1
13,799,CNC(=O)N1c2ccccc2CC1c1nc(C(C)C)no1 (stereo not drawn)
14,745,COC[C@@H]1CN(S(=O)(=O)c2ccccc2F)C[C@H]1c1ccncc1
15,592,COc1ccc(-n2nnc(C(=O)O)c2-c2ccncc2)cc1
16,951,O=C(Nc1ccc(N2CCOCC2)cc1)C1CCCN(c2ncc(-c3ccc(F)cc3)cn2)C1 (stereo not drawn)
17,641,CN(C)c1ncncc1N1CCC(C(=O)N2CCN(c3ccc(F)cc3)CC2)CC1
18,801,CCOCCCNc1ccc(-c2nnc(-c3ccc(C)cc3)o2)cn1
19,611,CN1CCN(C(=O)c2nn(-c3ccc(Cl)cc3)c3c(=O)n(C)cnc23)CC1
20,1020,N#CC(c1ccc(Cl)cc1)c1c(Cl)cc(N2NCC(=O)NC2=O)cc1Cl (stereo not drawn)
21,790,Cc1noc(C)c1S(=O)(=O)N1CCC(N2CC3(CCCCC3)C2c2ccccc2)CC1 (stereo not drawn)
22,1000,O=C1[C@@H]2Cc3c([nH]c4ccccc34)C(CCc3ccccc3)N2C(=O)CN1Cc1ccco1 (stereo partly drawn)

row,RP-LC retention time [s],SMILES
1,794,Cc1cccc(CNC(=O)CC2CCN(C(=O)c3[nH]c(C)cc3C)CC2)c1
2,716,CC(=O)O[C@@H]1CC[C@@]2(C)[C@H](C1)[C@H](OC(C)=O)C[C@@H]1[C@@H]2C[C@H]2[C@@H]3CN4C[C@H](C)CC[C@H]4[C@H](C)[C@H]3CC[C@@]12O
3,693,Cc1nc(-c2noc(-c3ccncc3)n2)cn1CC(=O)NCc1cccc(Cl)c1
4,594,Cn1nc(C(=O)N2CCCC(C(=O)NC3CC3)C2)c2c1CCN(C(=O)c1ccco1)C2 (stereo not drawn)
5,610,COCCCNC(=O)C1CCCN(c2nc3ccc(Cl)cc3[nH]2)C1 (stereo not drawn)
6,639,Cn1cccc1C(=O)NC1CCCN(c2cc(N3CCCC3)ncn2)C1 (stereo not drawn)
7,625,CC(=O)NCc1cn[nH]c1-c1ccc(Cl)cc1
8,663,CCC1CN(C(=O)N2CCC(C(=O)NCCCN3CCCCCC3)CC2)c2ccccc2O1 (stereo not drawn)
9,833,CC(C)n1cc(S(=O)(=O)NCc2cccs2)c2cccnc21
10,606,Cc1nnc(-c2coc(S(=O)(=O)N3CCN(c4ccccn4)CC3)c2)o1
11,664,CCC(C)Cn1c(CNC(=O)c2ccco2)nc2ccccc21 (stereo not drawn)
12,642,COc1cc(NC(=O)CCc2c(-c3ccc(Cl)cc3)nc3ccccn23)cc(OC)c1OC
13,657,COCCN1C(=O)CCC2(CNC(=O)c3cnccn3)CCCC=C12 (stereo not drawn)
14,723,CC(C)c1ccc(-c2ccnc3c(C(=O)NCc4cccnc4)cnn23)cc1
15,1090,CCc1ccc(-c2noc(Cn3c(=O)n(-c4ccc(F)cc4)c(=O)c4sccc43)n2)cc1
16,654,O=C(NCc1ccc(Cl)cc1)NCC1(CO)CC1
17,644,Cc1ccccc1OCC(=O)N1CCN(C2=CC3=NCC(C)N3C=N2)CC1 (stereo not drawn)
18,816,Cc1ccc(-c2cn3cccnc3n2)cc1NC(=O)c1ccc(C(C)(C)C)cc1
19,1060,COc1cccc(-n2c(=O)c3sccc3n(Cc3nc(-c4ccc(Cl)c(F)c4)no3)c2=O)c1
20,1050,Cc1ccc(NC(=O)Cn2cccc2-c2nnc(C3CCC3)o2)c(Cl)c1
21,922,Cc1ccccc1S(=O)(=O)N1CCC(C(=O)NCCc2csc(-c3cccs3)n2)CC1
22,812,COc1ccc(NC(=O)c2ccc(-c3ccc(-c4noc(C)n4)cc3C)cc2)cc1N1CCN(C)CC1

row,RP-LC retention time [s],SMILES
1,690,N#Cc1ccccc1CN1CCC2(CCC2N2CCOCC2)CC1 (stereo not drawn)
2,1120,O=C(Cn1nc2c(SC3CCCCC3)nccn2c1=O)Nc1ccc(Br)cc1F
3,632,Cc1cc(C(=O)Nc2ccc(S(C)(=O)=O)cc2)no1
4,813,CCc1ccc(-c2cc3c(=O)n(Cc4noc(CN5CCOCC5)n4)ccn3n2)cc1
5,815,COC(=O)CNC(=O)N1c2ccccc2CC1c1nc(C2CC2)no1 (stereo not drawn)
6,775,Cc1cccc(NC(=O)N2CCC3(CC2)NC(=O)c2ccccc2O3)c1C
7,738,Cc1cc(N2CCCCC2)nc(N2CCN(C(=O)CC3CCCC3)CC2)n1
8,760,CCn1ccc2sc(C)c(C(=O)N3CCCCCC3)c2c1=O
9,717,O=C(NCc1ccccc1)N1CCN(Cc2nc3cc(Cl)ccc3o2)CC1
10,636,Cc1ccccc1CC(=O)N1CCN(c2nc(CN3CCOCC3)cs2)CC1
11,825,O=C(Nc1ccccc1)C1CC(=O)N(CCc2c[nH]c3ccc(Cl)cc23)C1 (stereo not drawn)
12,1170,CCOc1ccc(CNC(=O)c2sccc2S(=O)(=O)N(C)c2ccc(OCC)cc2)cc1
13,1180,Cc1ccc(-c2noc(CN3C(=O)C(C)Oc4ccccc43)n2)cc1C (stereo not drawn)
14,851,CC(C)NC(=O)c1nnc(-c2ccc(S(=O)(=O)N3CCCCC3)cc2)o1
15,1300,COc1ccccc1N1CCN(S(=O)(=O)c2cc(-c3nc(C(C)C)cs3)cs2)CC1
16,683,COC(=O)c1ccccc1NC(=O)CSc1ccc(N2CCCC(C(=O)NC3CC3)C2)nn1 (stereo not drawn)
17,852,O=C(Cc1c(F)cccc1Cl)N1C[C@@H]2C[C@H]1C[C@@H]2NS(=O)(=O)c1ccccc1
18,940,CC(C)NC(=O)c1ccc(OCC2CCCN(C(=O)C3(c4ccccc4)CC3)C2)cc1 (stereo not drawn)
19,978,COC(=O)c1cc(S(=O)(=O)N2CCCC2C(=O)Nc2ccc(F)c(Cl)c2)cn1C (stereo not drawn)
20,797,CNC(=O)c1sc(-c2cccc(C)c2)nc1C
21,706,CC(C)CN(Cc1ccc(F)cc1)Cc1cc(=O)n2cc(Cl)ccc2n1
22,907,CCOC(=O)c1ccccc1NC(=O)N(CC)Cc1cc(=O)[nH]c2ccccc12

row,RP-LC retention time [s],SMILES
1,770,CCc1cc(=O)n(CC(=O)Nc2cccc(C)c2)c(N2CCOCC2)n1
2,726,O=C(c1cccnc1)N1CCC(c2nc(-c3ccccc3)no2)C1 (stereo not drawn)
3,802,CCC(=O)N1CCc2sc(C(=O)NCc3ccc(Cl)cc3)cc2C1
4,1010,O=C(Nc1ccc(SCc2nnc(-c3ccccc3)o2)cc1)c1ccc(Br)o1
5,842,Cc1noc(C)c1-c1ccc(S(=O)(=O)NCc2ccco2)cc1
6,611,CCC(=O)N1CCc2cc(C(=O)N3CCN(Cc4ccc5c(c4)OCO5)CC3)ccc21
7,822,CCC(C)NC(=O)NC1CCN(C2=NS(=O)(=O)C(c3ccc(C)cc3)=C2C)CC1 (stereo not drawn)
8,683,O=C(CSCc1ccccc1)NCCNC(=O)c1ccc(NC(=O)C2CC2)cc1
9,624,CCOC(=O)c1c(C)[nH]c(C(=O)N2CCC(CC(=O)N3CCN(C4CCCCC4)CC3)CC2)c1C
10,1120,CCN(CC)c1nc2cc(C(=O)OC)ccc2c(=O)n1-c1cccc(F)c1
11,931,Cc1nc2ccn(Cc3cccs3)c(=O)c2cc1C(=O)NCCC1=CCCCC1
12,678,CCCNC(=O)C1CCCN(c2ccc(SCC(=O)Nc3ccc(C)c(C)c3)nn2)C1 (stereo not drawn)
13,638,CC(C)OC(=O)c1ncoc1-c1ccccc1C(=O)N1CCN(C2CCCCC2)CC1
14,639,O=C(Nc1cccc(F)c1)C1(CCO)CCN(c2ncccn2)C1 (stereo not drawn)
15,631,O=C(Nc1cnc(N2CCCC2)c(C(=O)O)c1)c1ccc(Cl)cc1
16,711,COCCNC(=O)C1c2ccccc2CC(=O)N1Cc1ccccc1 (stereo not drawn)
17,856,CCNC(=O)N(CC(=O)N1CCc2sccc2C1COc1ccc(F)cc1)CC1CCCO1 (stereo not drawn)
18,750,Cn1cc(C=C2C(=O)Nc3cccnc32)c2ccccc21
19,717,COc1ccc(-c2nc3cnccn3c2Nc2ccc3c(c2)OCCO3)cc1OC
20,573,CC(C)c1nccn1C1CN(C(=O)COc2ccc(F)cc2)C1
21,804,CCN1C(=O)C(CC(=O)NC2CCCCCC2)Sc2ncccc21 (stereo not drawn)
22,706,O=S(=O)(c1ccc2c(c1)CCCC2)N1CCCn2nc(-c3ccncc3)cc2C1
